Patent US9975860B2, “Anti-angiogenic compounds” (UNIVERSITY COLLEGE DUBLIN—NATIONAL UNIVERSITY OF IRELAND, …, priority 2014, dated 2018)
“Also recorded” adds a separate entry of the source.

Key:
[1] = system: intersegmental vasculature in zebrafish; experiment: Quantification of intersegmental vessel number in zebrafish; assay type: in vivo; conditions: 10 μM; zebrafish embryos treated 6 hpf to 48 hpf
Description: At 6 hours post fertilisation, 5 embryos per well were placed in 400 μL of embryo medium/0.1% DMSO and incubated with 10 μM compound at 28° C. on a 14 h light/10 h dark cycle. At 48 hpf larvae were manually dechorionated, euthanised, and fixed in 4% PFA at 4° C. overnight before analysis. The larvae were then washed with PBS and transferred to depression slides for observation under epi-fluorescence in an Olympus SZX16 fluorescent microscope. The number of intersegmental vessels was counted and the average number was graphed for each drug.
(§1) All experimental protocols were carried out as per example 1 and 2. Briefly, zebrafish larvae were treated with 10 μM of AT-051/41206012 (chemical name 2-[2-(2-methoxyphenyl)ethenyl]pyrazine) purchased from Specs (The Netherlands). At 6 or 48 hours post fertilisation (hpf), 5 embryos per well were placed in 400 μl of Embryo Medium/0.1% DMSO and incubated with 10 μM AT-051/41206012 at 28° C. on a 14 h light/10 h dark cycle. Larvae were treated from 6-48 hpf (intersegmental vessel study) or from 48 to 120 hpf (primary hyaloid vessel study). At the end of the study, larvae were euthanized and fixed in 4% PFA at 4° C. overnight before analysis.
(§2) The number of intersegmental vessels was counted and the average number was graphed for each drug. Right lenses were dissected from the larvae and transferred to depression slides for observation and the number of primary hyaloid vessels radiating from the back of the lens (3-4 main branches at 5 dpf in controls and previously described), was counted and the average number was graphed for each drug.

[2] = system: primary hyaloid vessels in zebrafish; experiment: Quantification of primary hyaloid vasculature branch number in Tg(fli1:EGFP) zebrafish; assay type: in vivo
Description: All experiments were carried out under ethical approval granted by the UCD animal research ethics committee. Tg(fli1:EGFP) zebrafish were maintained according to standard procedures on a 14 hr light/10 hr dark cycle at 28° C. Embryos were obtained by natural spawning and developmental stages established by time and morphological criteria. At 48 hours post fertilisation (hpf), 5 embryos per well were placed in 400 μl of Embryo Medium/0.1% DMSO and incubated with compound (typically, 10 μM) at 28° C. on a 14 h light/10 h dark cycle. At 5 days post fertilisation (dpf), larvae were euthanised, and fixed in 4% PFA at 4° C. overnight before analysis.
Prior to analysis of the intraocular vasculature, the control and treated larvae were observed under an Olympus SZX16 stereo zoom microscope and screened for general malformations. Overall patterning of the vasculature (fin, gut and intersegmental vessels) was examined for abnormalities. Right lenses were dissected from the larvae and transferred to depression slides for observation under epi-fluorescence in the Olympus SZX16. Patterning of the hyaloid vessels on the treated larval lenses was compared to 0.1% DMSO controls and the archetypal pattern previously described (Alvarez et al., 2007; Alvarez et al., 2009). The number of primary vessels radiating from the back of the lens (3-4 main branches at 5 dpf in controls and previously described), was counted and the average number was graphed for each drug.
as §1, §2

[3] = system: human retinal (ARPE-19) cells; experiment: MTT cell viability assay in ARPE-19; assay type: cell-based; conditions: 5, 10, 25, 50, 75 or 90 μM, 96 hours
Description: A 3-(4,5-dimethylthiozol-2-yl)-2,5-diphenyltetrazolium bromide (MTT) dye reduction assay was carried out to determine the cytotoxicity of each compound on either human microvascular endothelial cells (HMECs) or human retinal pigmented epithelium cells (ARPE-19). Cells were maintained in a 95% air and 5% CO2 atmosphere at 37° C. in Dulbecco modified Eagle medium (DMEM, Sigma Aldrich) with 10% fetal bovine serum, 2 mM Gibco® L-glutamine and 100 units/ml penicillin, 1 mg/ml streptomycin (Invitrogen) supplementation. On day 1, cells were trypsinized (Trypsin-EDTA 1×) and seeded 1.4×10^4 cells per well of a 96 well plate and incubated overnight. On day 2, cells were serum staved in DMEM with L-glutamine and penicillin-streptomycin supplementation for 24 h. On day 3, cells were drug treated for 24 h (HMECs) or 96 h (ARPE-19 cells) with 0.1% DMSO or 10 μM to 90 μM of each compound 4, 8, 15, 18 or 20, with 4 replicate wells of each compound. After 24-96 h, cells were incubated with […] 5 mg/ml MTT labelling Reagent (Roche) for 2 h. Subsequently, when purple formazan crystals formed cells were incubated with 1× solubilisation solution (Roche) for 4 h and absorbance read at 570 nm using a microplate reader.

mouse aortic ring = experiment: Ex vivo mouse aortic ring assay (sprout formation); conditions: 10 μM; C57/BL6 mouse aortic rings in matrigel; vs 0.1% DMSO; hydrochloride
Description: Aortae from sex matched C57/BL6 littermates were cleansed of adipose tissue, cut into 2 mm rings and immersed in matrigel. Aortic rings (6 per experiment) were treated with 0.1% DMSO (vehicle control/VC) or with 10 μM of Compound 4, Compound 12, Compound 15 or Compound 20. Sprouts from the perimeter of the aortic ring were counted and quantified as percentage of vehicle control (VC).

[4] = 10 μM, zebrafish larvae treated 48 hpf to 5 dpf, vs 0.1% DMSO control
[5] = concentrations below 10 μM (range 1, 2.5, 5, 7.5 and 10 μM tested), zebrafish larvae 48 hpf to 5 dpf

Row | Structure (SMILES) | inhibition of developmental angiogenesis of intersegmental vessels (number of intersegmental vessels) [1] | inhibition of developmental angiogenesis of the hyaloid vasculature (number of primary hyaloid vessels) [2, 4] | inhibition of developmental angiogenesis of the hyaloid vasculature (number of primary hyaloid vessels) [2, 5] | cell viability (MTT assay) [3] | angiogenesis (sprout formation) in aortic rings (mouse aortic ring)
1 | COc1ccccc1/C=C/c1cnccn1 [AT-051/41206012, 2-[2-(2-methoxyphenyl)ethenyl]pyrazine] | does not inhibit developmental angiogenesis of the intersegmental vessels; also recorded: does not affect the development of intersegmental vessels | significantly inhibits developmental angiogenesis of zebrafish hyaloid vessels; also recorded: does inhibit developmental angiogenesis of the zebrafish hyaloid vasculature in a statistically significant manner |  |  | 
2 | Oc1ccccc1/C=C/c1ccccn1 [Compound 1, (E)-2-[2-(Pyridin-2-yl)vinyl]phenol] |  | inhibit developmental angiogenesis of the zebrafish hyaloid vasculature in a statistically significant manner |  |  | 
3 | Cl.Oc1ccccc1/C=C/c1ccccn1 [Compound 2, (E)-2-[2-(Pyridin-2-yl)vinyl]phenol hydrochloride] | inhibit developmental angiogenesis of zebrafish intersegmental vessels in a statistically significant manner | inhibit developmental angiogenesis of the zebrafish hyaloid vasculature in a statistically significant manner | inhibit developmental angiogenesis of the zebrafish hyaloid vasculature in a statistically significant manner |  | 
4 | Oc1ccccc1/C=C/c1cnccn1 [Compound 3, (E)-2-[2-(Pyrazin-2-yl)vinyl]phenol] | inhibit developmental angiogenesis of zebrafish intersegmental vessels in a statistically significant manner | inhibit developmental angiogenesis of the zebrafish hyaloid vasculature in a statistically significant manner | inhibit developmental angiogenesis of the zebrafish hyaloid vasculature in a statistically significant manner |  | 
5 | Cc1cccc(/C=C/c2ccccc2O)n1.Cl [Compound 8, (E)-2-[2-(6-Methylpyridin-2-yl)vinyl]phenol hydrochloride] |  | inhibit developmental angiogenesis of the zebrafish hyaloid vasculature in a statistically significant manner | inhibit developmental angiogenesis of the zebrafish hyaloid vasculature in a statistically significant manner | does not affect cell viability | 
6 | C/C(=C\c1ccccc1O)c1cnccn1 [Compound 11, (E)-2-[2-(Pyrazin-2-yl)prop-1-enyl]phenol] |  | inhibit developmental angiogenesis of the zebrafish hyaloid vasculature in a statistically significant manner |  |  | 
7 | Cc1ccc(O)c(/C=C/c2cnccn2)c1 [Compound 13, (E)-4-Methyl-[2-(2-(pyrazin-2-yl)vinyl)]phenol] |  | inhibit developmental angiogenesis of the zebrafish hyaloid vasculature in a statistically significant manner |  |  | 
8 | Cc1ccc(O)c(/C=C/c2cnccn2)c1.Cl [Compound 14, (E)-4-Methyl-[2-(2-(Pyrazin-2-yl)vinyl)]phenol hydrochloride] |  | inhibit developmental angiogenesis of the zebrafish hyaloid vasculature in a statistically significant manner |  |  | 
9 | Cl.Oc1ccccc1/C=C/c1ncccn1 [Compound 15, (E)-2-[2-(Pyrimidin-2-yl)vinyl]phenol hydrochloride] |  | inhibit developmental angiogenesis of the zebrafish hyaloid vasculature in a statistically significant manner |  | does not affect cell viability | block angiogenesis (sprout formation); also recorded: inhibit the formation of sprouts in a statistically significant manner
10 | COc1ccccc1C#Cc1cnccn1 [Compound 19, 2-[2-(2-Methoxyphenyl)ethynyl]pyrazine] | inhibit developmental angiogenesis of zebrafish intersegmental vessels in a statistically significant manner |  | inhibit developmental angiogenesis of the zebrafish hyaloid vasculature in a statistically significant manner |  | 
11 | Cl.Oc1ccccc1C#Cc1cnccn1 [Compound 20, 2-[2-(pyrazin-2-yl)ethynyl]phenol hydrochloride] | inhibit developmental angiogenesis of zebrafish intersegmental vessels in a statistically significant manner | inhibit developmental angiogenesis of the zebrafish hyaloid vasculature in a statistically significant manner | inhibit developmental angiogenesis of the zebrafish hyaloid vasculature in a statistically significant manner | does not affect cell viability | block angiogenesis (sprout formation); also recorded: inhibit the formation of sprouts in a statistically significant manner
12 | Cl.Oc1ccccc1/C=C/c1ncc[nH]1 [Compound 23, (E)-2-(2-(IH-Imidazol-2-yl)vinyl)phenol hydrochloride] |  | inhibit developmental angiogenesis of the zebrafish hyaloid vasculature in a statistically significant manner |  |  | 
